This note sets out measurements from patent US20080181866A1, “Amido Anti-viral Compounds” (Genelabs Technologies, Inc., priority 2006, published 2008).

For this test, the system named is HCV replication. Description: HCV replicon assay (luciferase) in ET (Huh-lucubineo-ET) cell line. In kind it is cell-based. The note with it: tested at 5 μM, ET replicon cells, luciferase activity measured 48-72 hours later, relative to no compound control; for inhibition at 5 µM: Hepatitis C virus. The protocol:
A cell line, ET (Huh-lucubineo-ET) was used for screening of compounds of the present invention for inhibiting HCV replication. The ET cell line was stably transfected with RNA transcripts harboring a I389luc-ubi-neo/NS3-3′/ET; replicon with firefly luciferase-ubiquitin-neomycin phosphotransferase fusion protein and EMCV-IRES driven NS3-5B polyprotein containing the cell culture adaptive mutations (E1202G; T12801; K1846T) (Krieger at al, 2001 and unpublished). The ET cells were grown in DMEM (Dulbeco's Modified Eagle's Medium), supplemented with 10% fetal calf serum, 2 mM Glutamine, Penicillin (100 IU/mL)/Streptomycin (100 μg/mL), 1× nonessential amino acids, and 250 μg/mL G418 (“Geneticin”). They were all available through Life Technologies (Bethesda, Md.). The cells were plated at 0.5-1.0×10^4 cells/well in the 96 well plates and incubated for 24 hrs before adding testing compounds. Then the compounds were added to the cells to achieve a final concentration of 0.1 nM to 50 μM and a final DMSO concentration of 0.5%. Luciferase activity were measured 48-72 hours later by adding a lysis buffer and the substrate (Catalog number Glo-lysis buffer E2661 and Bright-Glo luciferase system E2620 Promega, Madison, Wis.). Cells should not be too confluent during the assay. Percent inhibition of replication was plotted relative to no compound control. Under the same condition, cytotoxicity of the compounds was determined using cell proliferation reagent, WST-1 (Roche, Germany). The compounds showing antiviral activities, but no significant cytotoxicities were chosen to determine EC50 and TC50. For these determinations, a 10 point 2-fold serial dilution for each compound was used, which spans a concentration range of 1000 fold. EC50 and similarly TC50 values were calculated by fitting % inhibition at each concentration to the following equation:
% inhibition=100%/[(IC50/[I])^b+1]
where b is Hill's coefficient.
In some preferred embodiments compounds of Formula I will have a % inhibition of at least 20% when tested at 5 μM. In other embodiments the compounds of Formula I will have a % inhibition of at least 50% when tested at 5 μM.
In general terms: In antiviral work, replicon cells carry a viral genome segment that copies itself.

Structures are written as SMILES.

In general, inhibition refers to the share of the control response that was lost under treatment. Compound `O=C(Cc1cccc(NC(=O)[C@@H]2CSC(c3ccncc3)N2C(=O)OCc2ccccc2)c1)NCCc1ccccc1` (some centres unmarked) [Compound 7136, 4-[3-(Phenethylcarbamoyl-methyl)-phenylcarbamoyl]-2-pyridin-4-yl-thiazolidine-3-carboxylic acid benzyl ester] showed an inhibition at 5 µM of 90%.
The same measure, in the same setting: with `O=C(Nc1nc(-c2ccccc2)cs1)[C@@H]1CS[C@H](c2cccnc2)N1C(=O)OCc1ccccc1` [Compound 7058, (2R,4R)-4-(4-Phenyl-thiazol-2-ylcarbamoyl)-2-pyridin-3-yl-thiazolidine-3-carboxylic acid benzyl ester] the figure was 99.9%.
Still for that read-out and setting: with `O=C(Cc1ccc(NC(=O)[C@@H]2CSC(c3ccncc3)N2C(=O)OCc2ccccc2)cc1)Nc1ccccc1` (some centres unmarked) [Compound 7126, 4-(4-Phenylcarbamoylmethyl-phenylcarbamoyl)-2-pyridin-4-yl-thiazolidine-3-carboxylic acid benzyl ester] the figure was 93.8%.
`O=C(NCc1ccccc1)c1cccc(NC(=O)[C@@H]2CSC(c3ccncc3)N2C(=O)OCc2ccccc2)c1` (some centres unmarked) [Compound 7100, 4-(3-Benzylcarbamoyl-phenylcarbamoyl)-2-pyridin-4-yl-thiazolidine-3-carboxylic acid benzyl ester]: 5 µM produced 80.1% inhibition.
For `O=C(Nc1nc(-c2ccccc2)cs1)[C@@H]1CSC2(CCOCC2)N1C(=O)OCc1ccccc1` [Compound 7094, 3-(4-Phenyl-thiazol-2-ylcarbamoyl)-8-oxa-1-thia-4-aza-spiro[4.5]decane-4-carboxylic acid benzyl ester], testing at 5 µM gave an inhibition of 88%.
Still for that read-out and setting: then `CC(=O)N1CCCC(C2SC[C@@H](C(=O)Nc3nc(-c4ccc(C(=O)NC5CC5)cc4)cs3)N2C(=O)OCc2ccccc2)C1` (mixture of isomers) [Compound 7133, 2-(1-Acetyl-piperidin-3-yl)-4-[4-(4-cyclopropylcarbamoyl-phenyl)-thiazol-2-ylcarbamoyl]-thiazolidine-3-carboxylic acid benzyl ester], with 100%; and `CC(C)(C)OC(=O)N1C[C@@H](c2ccccc2)C[C@H]1C(=O)Nc1nc(-c2ccc(C(=O)NC3CC3)cc2)cs1` [Compound 7027, (2S,4R)-2-[4-(4-Cyclopropylcarbamoyl-phenyl)-thiazol-2-ylcarbamoyl]-4-phenyl-pyrrolidine-1-carboxylic acid tert-butyl ester], with 6.9%.
The same measure, in the same setting: with `O=C(NC1CC1)c1ccc(-c2csc(NC(=O)[C@@H]3CSC(Cc4ccccc4)N3C(=O)OCc3ccccc3)n2)cc1` (some centres unmarked) [Compound 7101, 2-Benzyl-4-[4-(4-cyclopropylcarbamoyl-phenyl)-thiazol-2-ylcarbamoyl]-thiazolidine-3-carboxylic acid benzyl ester] the figure was 98.4%.
`O=C(NC1CC1)c1ccc(-c2csc(NC(=O)[C@@H]3Cc4ccccc4CN3C(=O)OCc3ccccc3)n2)cc1` [Compound 7002, (S)-3-[4-(4-Cyclopropylcarbamoyl-phenyl)-thiazol-2-ylcarbamoyl]-3,4-dihydro-1H-isoquinoline-2-carboxylic acid benzyl ester] gave an inhibition at 5 µM of 97.5%.
Same read-out and setting: then `Cn1ccnc1C1SC[C@@H](C(=O)Nc2nc(-c3ccc(C(=O)NC4CC4)cc3)cs2)N1C(=O)OCc1ccccc1` (mixture of isomers) [Compound 7053, (R)-4-[4-(4-Cyclopropylcarbamoyl-phenyl)-thiazol-2-ylcarbamoyl]-2-(1-methyl-1H-imidazol-2-yl)-thiazolidine-3-carboxylic acid benzyl ester], with 99.6%; and `O=C(NC1CC1)c1ccc(-c2csc(NC(=O)[C@@H]3CSC4(CCCCC4)N3C(=O)OCc3ccccc3)n2)cc1` [Compound 7093, 3-[4-(4-Cyclopropylcarbamoyl-phenyl)-thiazol-2-ylcarbamoyl]-1-thia-4-aza-spiro[4.5]decane-4-carboxylic acid benzyl ester], with 100%.
Same read-out and setting: then `CC(C)(C)OC(=O)NCc1ccc(NC(=O)[C@@H]2CSC(c3ccncc3)N2C(=O)OCc2ccccc2)cc1` (some centres unmarked) [Compound 7078, 4-[4-(tert-Butoxycarbonylamino-methyl)-phenylcarbamoyl]-2-pyridin-4-yl-thiazolidine-3-carboxylic acid benzyl ester], with 35.6%; and `O=C(NC1CCCC1)c1ccc(-c2csc(NC(=O)[C@@H]3CSC(c4ccncc4)N3C(=O)OCc3ccccc3)n2)cc1` (some centres unmarked) [Compound 7012, 4-[4-(4-Cyclopentylcarbamoyl-phenyl)-thiazol-2-ylcarbamoyl]-2-pyridin-4-yl-thiazolidine-3-carboxylic acid benzyl ester], with 98.8%; and `CC(=O)c1cccc(C2SC[C@@H](C(=O)Nc3nc(-c4ccc(C(=O)NC5CC5)cc4)cs3)N2C(=O)OCc2ccccc2)c1` (some centres unmarked) [Compound 7120, 2-(3-Acetyl-phenyl)-4-[4-(4-cyclopropylcarbamoyl-phenyl)-thiazol-2-ylcarbamoyl]-thiazolidine-3-carboxylic acid benzyl ester], with 100%.
Same read-out and setting: with `O=C(NC1CC1)c1ccc(-c2csc(NC(=O)[C@@H]3CSC(C4CCOCC4)N3C(=O)CC3CC3)n2)cc1` (some centres unmarked) [Compound 7104, 3-(2-Cyclopropyl-acetyl)-2-(tetrahydropyran-4-yl)-thiazolidine-4-carboxylic acid [4-(4-cyclopropylcarbamoyl-phenyl)-thiazol-2-yl]-amide] the figure was 100%.
What is called % inhibition is the drop in the measured response relative to a control, in per cent. The low end stands for little suppression, the high end for strong suppression. Take `CC(C)(C)OC(=O)N1C(c2cccnc2)SC[C@H]1C(=O)Nc1nc(-c2ccc(C(=O)NC3CC3)cc2)cs1` (single isomer, unassigned) [Compound 7055, 4-[4-(4-Cyclopropylcarbamoyl-phenyl)-thiazol-2-ylcarbamoyl]-2-pyridin-3-yl-thiazolidine-3-carboxylic acid tert-butyl ester]: for the setting “5 µM”, the “% inhibition at 5 μM” value is listed as 99.1%.
Compound `COC(=O)CCCCC1SC[C@@H](C(=O)Nc2nc(-c3ccc(C(=O)NC4CC4)cc3)cs2)N1C(=O)OCc1ccccc1` (some centres unmarked) [Compound 7108, 4-[4-(4-Cyclopropylcarbamoyl-phenyl)-thiazol-2-ylcarbamoyl]-2-(4-methoxycarbonyl-butyl)-thiazolidine-3-carboxylic acid benzyl ester] displayed an inhibition at 5 µM of 99.9%.
Regarding `O=C(NC1CC1)c1ccc(-c2csc(NC(=O)[C@@H]3CSC(c4cc[n+]([O-])cc4)N3C(=O)OCc3ccccc3)n2)cc1` (stereo partly drawn) [Compound 7050, (R)-4-[4-(4-Cyclopropylcarbamoyl-phenyl)-thiazol-2-ylcarbamoyl]-2-(1-oxy-pyridin-4-yl)-thiazolidine-3-carboxylic acid benzyl ester], at 5 µM the inhibition was 100%.
Still for that read-out and setting: with `O=C(NC1CC1)c1ccc(-c2csc(NC(=O)C3Cc4ccccc4N3C(=O)OCc3ccccc3)n2)cc1` (centres unmarked) [Compound 7019, 2-[4-(4-Cyclopropylcarbamoyl-phenyl)-thiazol-2-ylcarbamoyl]-2,3-dihydro-indole-1-carboxylic acid benzyl ester] the figure was 98.3%; with `O=C(NC1CC1)c1ccc(-c2csc(NC(=O)[C@@H]3CSC(C4CCOCC4)N3C(=O)C3CC3)n2)cc1` (some centres unmarked) [Compound 7085, 3-Cyclopropanecarbonyl-2-(tetrahydro-pyran-4-yl)-thiazolidine-4-carboxylic acid [4-(4-cyclopropylcarbamoyl-phenyl)-thiazol-2-yl]-amide], 99.6%.
On the same count and under the same terms, then `O=C(NC1CC1)c1ccc(-c2csc(NC(=O)[C@@H]3CSC(c4cccc(CN5CCOCC5)c4)N3C(=O)OCc3ccccc3)n2)cc1` (mixture of isomers) [Compound 7080, 4-[4-(4-Cyclopropylcarbamoyl-phenyl)-thiazol-2-ylcarbamoyl]-2-(3-morpholin-4-ylmethyl-phenyl)-thiazolidine-3-carboxylic acid benzyl ester], with 100%.
Still for that read-out and setting: then `O=C(NC1CC1)c1ccc(-c2csc(NC(=O)[C@@H]3CSC(c4cccc(F)c4)N3C(=O)OCc3ccccc3)n2)cc1` (mixture of isomers) [Compound 7048, (R)-4-[4-(4-Cyclopropylcarbamoyl-phenyl)-thiazol-2-ylcarbamoyl]-2-(3-fluoro-phenyl)-thiazolidine-3-carboxylic acid benzyl ester], with 99.3%.
Take `O=C(NC1CC1)c1ccc(-c2csc(NC(=O)[C@@H]3CC[C@H](c4ccccc4)N3C(=O)OCc3ccccc3)n2)cc1` [Compound 7052, (2S,5R)-2-[4-(4-Cyclopropylcarbamoyl-phenyl)-thiazol-2-ylcarbamoyl]-5-phenyl-pyrrolidine-1-carboxylic acid benzyl ester]: the inhibition at 5 µM came to 98.9%.
